Source: patent publication US9808425B2, “Targeted liposomes in cancer therapy” (WESTERN UNIVERSITY OF HEALTH SCIENCES, priority 2011, dated 2017)

System: A549 cells
Assay: DNR-mediated cytotoxicity, MTS assay
Format: cell-based
Details: Homo sapiens, A549, 72 h, read-out: IC50 AVG
Description: Because DNR is a cytotoxic compound, the effectiveness of cystine liposomal DNR as an intracellular delivery system was assessed by relying on cytotoxicity measurements as a measure of DNR uptake. […] Cytotoxicity was measured in A549 cells following the addition of the aforementioned DNR formulations to the cells followed by an incubation period, and determination of cytotoxicity by using a MTS assay. Briefly, an MTS assay is a non radioactive cell proliferative assay of a tetrazolium compound (3-(4,5-dimethylthiazol-2-yl)-5-(3-carboxymethoxyphenyl)-2-(4-sulfophenyl)-2H-tetrazolium, inner salt; MTS) and the electron coupling reagent, phenazine methosulfate (PMS). MTS is bio-reduced by cells to a formazan compound by a reductase enzyme present in metabolically active cells. The absorbance of the formazan compound can be measured at 490 nm wavelength and is directly proportional to the number of living cells. The toxicity was determined using dose response curve to determine IC50. IC50 is the concentration of the test compound required to reduce light absorbance capacity of the cells by 50%.
MTS reagent was prepared by mixing 20% MTS and 1% PMS solution in RPMI 1640 medium of volume 8 ml. […] The amount of formazan was measured at 490 nm wavelength. […]

COc1cccc2c1C(=O)c1c(O)c3c(c(O)c1C2=O)C[C@@](O)(C(C)=O)C[C@@H]3O[C@H]1C[C@H](N)[C@H](O)[C@H](C)O1 [Free DNR, daunorubicin]
IC50: 15.2 µM
